# What was measured:
# [1] = tested on: autonomic nervous system; assay: Heart rate variability spectral analysis in anesthetized rats after intravenous drug; format: in vivo, Sprague-Dawley rats; settings: for high frequency (index of parasympathetic nervous activity): 0.5 to 2.4 Hz
# Description: Matured male Sprague-Dawley rats (weighed 250-350 g) were first sensitizing anesthetized by intraperitoneal injecting of pentobarbital sodium (50 mg/kg) and then were general anesthetized by continuously infusion with pentobarbital sodium (15 mg/kg). The rats were intubated in both femoral veins, wherein one was used for continuously dropping anesthesia and the other was used for delivering testing drug. The rates were tracheal intubated to connect with a respirator (Havard 683) for mechanical respiration. In addition, the skeletal muscle of the whole body of the animals was anesthetized by administrating pancuronium. In order to record the artery pressure, the intubation at the right femoral artery was linked to a PE-50 tube connected with a syringe pre-filled with heparinized saline (200 unit/mL). The artery pressure and heart rate were recorded by a pressure sensory machine ([…], Hewlett-Packard) in the tube. The artery pressure was converted by a pressure converter (Statham, P231D, frequency range: DC to 200 Hz), amplified by a pre-amplifier (Gould, G-13-4615-52), and then filtered (DC to 100 Hz). Electrocardiograph signal was recorded by a second guided electrocardiograph recorder. The signal was amplified by a pre-amplifier(Gould G-20-4615-58) and then filtered (3-300 Hz). At the same time, the signal and the artery pressure were caught by a 12 bit analog-digital converter in an analyzing computer in a frequency of 256 points per second in every channel. The computer used was an IBM-PC compatible type comprising an Intel 80486 micro processor and a 4 MB memory. The Heart rate signals (digital blood pressure signal or electrocardiograph signal) were simultaneously and continuously on-line analyzed by the Fast Fourier Transform method, and the power of each special frequency interval was quantified by integration. High frequency (frequency between 0.5 to 2.4 Hz) in spectrum was considered as an index of parasympathetic nervous function, low frequency % [=100× low frequency/(high frequency+low frequency)] was considered as an index of sympathetic nervous function, and the means of heart rate period and variance were considered as references. The rats were divided into three groups, and each group had 4 to 6 animals. A group of animals were intravenously administered with yohimbine (1 mg/kg), which is a central nervous system α2 receptor antagonist being able to stimulate sympathetic nervous functions and inhibit parasympathetic nervous functions. Another group of animals was intravenously administered with guanabenz (100 μg/kg), which is a central nervous system α2 receptor agonist being able to inhibit sympathetic nervous functions and stimulate parasympathetic nervous functions. The animals administered with saline of the same volume was classified as a controlled group. Prior to applying the drugs, basal blood pressure, mean value of heart rate period and spectral analysis were measured for about 10 minutes, and after the drugs being intravenously administered, the effects of the drugs were measured for 30 minutes. […] Therefore, low frequency % is shown to be a valid index of the sympathetic nervous activity, and high frequency an index of the parasympathetic nervous activity, respectively. […]
# [2] = tested on: autonomic nervous system; assay: Heart rate variability (ECG spectral analysis) in apoplectic patients complicated with hypertension before and after drug; format: in vivo, human; settings: labetalol 12.5 mg injected
# Description: In this human experiment, the non-invasive apparatus system of the invention was used to monitor the autonomic nervous system functional change side effects caused by drugs. Four (two females and two males) apoplectic patients complicated with hypertension at the age of 77.3±8.8 (± means standard deviation) were chosen in the study. The patients were divided into two groups: (1) the control group and (2) the labetalol group (the experiment group). All patients, 5 minutes before administrating the drug, were classified as the control group. After being treated/injected with labetalol (12.5 mg) for 5 minutes, the patients became the labetalol group. Labetalol is an α and β combined epinephrine antagonist (a sympathetic hormone epinephrine blocker) for lowering blood pressure. Treatment and analysis of the electrocardiograph (ECG) were conducted similarly to those recited in Example 1, except that the ranges of the frequencies were determined based on those of humans. The power of each frequency range comprising variance, low frequency power (0.04-0.15 Hz) and high frequency power (0.15-0.4 Hz) was quantified by integration. Parameters of the ratios of low frequency/high frequency (LF/HF ratio) and low frequency rate (LF%) were also calculated at the same time. The values of variance, LF, HF and LF/HF were logarithmically transformed to correct the distribution bias. All data were presented as mean ±SD, and the differences between the experimental and control groups were examined by paired t-test, wherein a value of p<0.05 is considered as the data having a statistic meaning. […] Variance and HF responses were uncertain (P>0.05). In light of the results of the experiment, it has been proven that non-invasive apparatus system of the invention can be used in patients for monitoring autonomic nervous system functional change side effects caused by drugs.
# [3] = guanabenz 100 μg/kg intravenously, FIG. 2
# [4] = guanabenz 100 μg/kg intravenously, measured for 30 minutes after drug, FIG. 2
# [5] = 5 minutes after vs before, P>0.05, FIG. 4
# [6] = 5 minutes after vs before, p<0.05, FIG. 4
# [7] = yohimbine 1 mg/kg intravenously, FIG. 3
compound,measurement,setting,value
N=C(N)N/N=C/c1c(Cl)cccc1Cl [guanabenz],high frequency (index of parasympathetic nervous activity),[1]; [3],increased
same,low frequency % (index of sympathetic nervous activity),[1]; [3],tremendously lowered
same,heart rate period,[1]; [4],increased
same,heart rate variability,[1]; [4],increased
CC(CCc1ccccc1)NCC(O)c1ccc(O)c(C(N)=O)c1 (stereo not drawn) [labetalol],heart rate period,"[2]; 5 minutes after vs 5 minutes before, four patients, p<0.05, FIG. 4",increased
same,HF response,[2]; [5],uncertain
same,Variance response,[2]; [5],uncertain
same,LF % (index of heart sympathetic nervous activity),[2]; [6],decreased
same,LF/HF (index of heart sympathetic nervous activity),[2]; [6],decreased
COC(=O)[C@@H]1[C@H]2C[C@H]3c4[nH]c5ccccc5c4CCN3C[C@@H]2CC[C@@H]1O [yohimbine],high frequency (index of parasympathetic nervous activity),[1]; [7],lowered
same,heart rate period,[1]; [7],lowered
same,low frequency % (index of sympathetic nervous activity),[1]; [7],tremendously increased

# Source: US20040054292A1, “Non-invasive apparatus system for monitoring autonomic nervous system and uses thereof” (INDUSTRIAL TECHNOLOGY RESEARCH INSTITUTE, priority 2002, published 2004)
